Results on 4 compounds are retold here after patent publication US11236122B2, “Triterpene amine derivatives” (DFH THERAPEUTICS, priority 2018, dated 2022).

One may read the IC50 as the point on the concentration scale where inhibition reaches its midpoint. By CC50 is commonly meant the concentration giving 50% cytotoxicity.

The subject of one data set is HIV-1 clade C ZM247. The data set can be described thus: CA-SP1 accumulation assay (immunoblot), clade C ZM247. Type of data set: cell-based. The conditions noted are these: head prints K3016. As to the method:
Compound evaluation was performed against a panel of HIV-1 Clade C isolates K3016, pindieC1, and ZM247. The three isolates all contain the SP1-A7V. Clade B NL4-3 was included as the […] control.
Plasmids, tissue culture and transfections. HIV-1 clade B molecular clone NL4-3 and cade C clones K3016, ZM247 were obtained from Dr. Christina Ochsenbauer, University of Alabama, USA. Both K3016 and ZM247 were constructed using viral strains from South Africa. The HIV-1 clade C molecular clone pindieC1 was obtained from Dr. Uday Ranga, JNCASR, India. This clone was constructed using an HIV strain from India. HEK-293T and TZM-bl cells were propagated in Dulbecco's modified Eagle's medium (DM4EM) containing 10% fetal bovine serum (FBS). HUT-R5 cells were propagated in RPM 1640 medium supplemented with 10% FBS. For transfections, HEK-293T cells were grown in six well plates to about 80% confluency. Cells were transfected using Lipofectamine 2000 (invitrogen, USA) following manufacturer's recommendations. For viral replication assays, HUT-R5 T-cells were transfected using DEAE dextran as described in Waheed, A. A., Ono, A., and Freed, E. O.; Methods for the study of HIV-1 assembly; Methods Mol. Biol. Clifton N.J. 485, 163-184 (2009).
Preparation of viral stocks. Virus stocks were prepared by transfecting HEK-293T cells with HIV-1 DNAs (3 μg). 24 h post-transfection, the culture medium was replaced with fresh DMEM and incubated for another 2 h. Compounds tested were maintained in the culture throughout transfection. The culture supernatant was centrifuged at 845×g for 3 min to remove cellular debris. The clarified supernatants were filtered (pore size 0.45 µm filter disc) to remove residual cellular contaminants. For determination of viral infectivity, the un-concentrated virus was used to infect TZM-bl cells. For the CA-SP1 accumulation assay, the virus was pelleted by ultra-centrifugation at 210,100×g for 1 h at 4° C. using SW41Ti rotor (Beckman Coulter, USA).
CA-SP1 accumulation assay. To measure accumulation of CA-SP1, immunoblot analysis of virus-associated proteins was performed. The virus pellet was resuspended in radioimmunoprecipitation assay (RIPA) buffer (50 mM Tris-HCl pH 8.0, 150 mM sodium chloride, 1.0% NP-40, 0.5% sodium deoxycholate, 0.1% SDS) containing 1×protease inhibitor cocktail (Roche, Germany). The viral lysates were subjected to SDS-polyacrylamide gel electrophoresis (15% gel). Proteins were transferred to polyvinylidene difluoride membranes and reacted with HIV-IgG obtained from the NIH AIDS Reagent Program (catalog no. 3957) followed by incubation with HRP-conjugated anti-human secondary antibodies (GE Healthcare, UK). The proteins were visualized by enhanced chemiluminescence (Pierce, USA) and the bands were quantified using ImageJ software (http://imagej.nih.gov/ij/).
In general terms: Immunoblotting shows a protein as a band on a membrane.

Data set [1] concerns HIV-1 clade C K3016 in HUT-R5 cells. The data set can be described thus: Antiviral assay in HUT-R5 cells (p24), K3016. Type of data set: cell-based. The note with it: Human immunodeficiency virus 1, 192 h, 8 days, mean ± SEM, 2 experiments. As to the method:
Antiviral assays. HUT-R5 cells were infected with normalized HIV-1 clade C K3016 virus stocks at 37° C. for 1 h. Cells were then maintained for 8 days in the presence of serial dilutions of the compounds assayed. After 8 days, the HIV-1 p24 concentration in the virus supernatants was measured to monitor virus replication. The 50% inhibitory concentrations (IC50s) were determined that reduced HIV-1 p24 levels to 50% relative to DMSO-only controls.

A short description of data set [2]: Cytotoxicity assay CellTitre-Blue, HUT-R5. Type of data set: cell-based. The note with it: human, HUT-R5 cells, read-out: Cytotoxicity CC50 HUTR5. As to the method: Cytotoxicity assays. Cytotoxicity assays were performed using the CellTitre-Blue Cell Viability Assay kit (Promega, USA) as per manufacturer's recommendations. HEK-293T and HUT-R5 cell lines were maintained in the presence of serial dilutions of the compounds for 4 days and treated with CellTitre-Blue reagent for 4 h at 37° C. The fluorescent signals were recorded at 530/25excision and 590/35emission using BioTek microplate reader. The 50% cytotoxicity concentrations (CC50s) were determined as the compound concentrations that reduced the fluorescent signals to 50% relative to DMSO only controls.

Another data set deals with WT pNL4-3. The data set can be described thus: CA-SP1 accumulation assay, WT NL4-3. Type of data set: cell-based, HIV-1. The note with it: HeLa or 293T cells; for % CA-SP1 Accumulation 10 nM NL4-3: 10 nM compound. In short, it runs like this: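 HeLa or 293T cells transfected with proviral clone, maturation inhibitors present through transfection and labeling; at 24 h, [^35S]Met/Cys labeling 2-3 h. Virions pelleted by ultracentrifugation, lysed, CA and CA-SP1 resolved by SDS-PAGE and quantified by phosphorimaging.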

Counter-ions that a name gives are not always drawn. Where only a bound is given, the exact number is not on record here.

As for `C=C(C)[C@@H]1CC[C@]2(CCNCCN3CCN(Cc4ccccc4)CC3)CC[C@]3(C)[C@H](CC[C@@H]4[C@@]5(C)CC[C@H](OC(=O)CC(C)(C)C(=O)O)C(C)(C)[C@@H]5CC[C@]43C)[C@@H]12` [Compound 51hh, (3β)-17-[2-[[2-[4-(Phenylmethyl)piperazin-1-yl]ethyl]amino]ethyl]-28-norlup-20(29)-en-3-ol, 3-(1-Hydrogen 2,2-Dimethylbutanedioate)], in the data set with HIV-1 clade C ZM247, the “% CA-SP1 Accumulation K3016 10 nM” value is reported as 7.0% and the “% CA-SP1 Accumulation K3016 100 nM” value was determined as 27.2%. Besides, in data set [1], the 50% inhibitory concentration (IC50) came out at 3.89 ± 0.18 nM. Moreover, the CC50 at 4 days in data set [2] is over 500 nM. Besides, the “% CA-SP1 Accumulation 10 nM NL4-3” value in the data set on WT pNL4-3 is on record as 66.4 (3) %.

Consider `C=C(C)[C@@H]1CC[C@]2(CCNCCN3CCS(=O)(=O)CC3)CC[C@]3(C)[C@H](CC[C@@H]4[C@@]5(C)CC[C@H](OC(=O)CC(C)(C)C(=O)O)C(C)(C)[C@@H]5CC[C@]43C)[C@@H]12` [Compound 51ee, (3β)-17-[[[2-[2-(1,1-Dioxothiomorpholin-4-yl)]Ethyl]Amino]Ethyl]-28-norlup-20(29)-en-3-ol, 3-(1-Hydrogen 2,2-Dimethylbutanedioate)], for which, in the data set on HIV-1 clade C ZM247, the “% CA-SP1 Accumulation K3016 10 nM” value is reported as 14.2% and the “% CA-SP1 Accumulation K3016 100 nM” value was found to be 32.6%. Further, in data set [1], it took 3.6 ± 0.22 nM to reach half-maximal inhibition (IC50). For the same compound, the CC50 at 4 days in data set [2] is over 500 nM. In the data set on WT pNL4-3, the “% CA-SP1 Accumulation 10 nM NL4-3” value amounted to 73.5%.

As to `C=C(C)[C@@H]1CC[C@]2(CCNC3CCN(CCO)CC3)CC[C@]3(C)[C@H](CC[C@@H]4[C@@]5(C)CC[C@H](OC(=O)CC(C)(C)CC(=O)O)C(C)(C)[C@@H]5CC[C@]43C)[C@@H]12` [Compound 51f, (3β)-17-[2-[[1-(2-Hydroxyethyl)piperidin-4-yl]amino]ethyl]-28-norlup-20(29)-en-3-ol, 3-(Hydrogen 3,3-Dimethylpentanedioate), Bis(trifluoroacetate) Salt], the “% CA-SP1 Accumulation 100 nM NL4-3” value in the data set with WT pNL4-3 (100 nM compound) is on record as 79.7 (3) %.

For `C=C(C)[C@@H]1CC[C@]2(CCNCCN3CCN(S(C)(=O)=O)CC3)CC[C@]3(C)[C@H](CC[C@@H]4[C@@]5(C)CC[C@H](OC(=O)CC(C)(C)C(=O)O)C(C)(C)[C@@H]5CC[C@]43C)[C@@H]12` [Compound 51ff, (3β)-17-[2-[[2-[4-(Methylsulfonyl)piperazin-1-yl]ethyl]amino]ethyl]-28-norlup-20(29)-en-3-ol, 3-(1-Hydrogen 2,2-Dimethylbutanedioate)], in the data set with HIV-1 clade C ZM247, the “% CA-SP1 Accumulation K3016 10 nM” value is on record as 12.8% and the “% CA-SP1 Accumulation K3016 100 nM” value turned out to be 19.1%. Besides, in data set [1], the 50% inhibitory concentration (IC50) turned out to be 2.27 ± 0.56 nM. In addition, the CC50 at 4 days in data set [2] is over 500 nM. Also, the “% CA-SP1 Accumulation 10 nM NL4-3” value with WT pNL4-3 is 72.7 (3) %.
